Data: patent US20050019308A1, “Oncolytic viruses for the treatment of neoplasms having activated PP2A or Rac” (Oncolytics Biotech Inc., priority 2003, published 2005)

How the values were obtained:
PKR = PKR phosphorylation in cells transformed with v-erbB in the presence of selective phosphatase inhibitors; format: cell-based; settings: in the presence of the inhibitor
Description: (§1) PKR is not phosphorylated (i.e., […]) in cells transformed with elements of the ras pathway, such as v-erbB. To determine whether serine-threonine phosphatases are responsible for the lack of phosphorylation of PKR in these cells, selective inhibitors of the phosphatases are employed to assess the role of each phosphatase. […] Inhibitors specific for PP1 or PP2C have no effects on PKR phosphorylation.

reovirus = assay: Susceptibility of phosphatase inhibitor-treated transformed cells to reovirus infection; format: cell-based; settings: okadaic acid-treated cells
Description: as §1

PP2A = settings: cited from earlier work
PP1 = settings: cited from earlier work
PP2B = settings: cited from earlier work

## C=C1[C@@H](O)[C@@H]2O[C@]3(CC[C@H](/C=C/[C@@H](C)[C@@H]4CC(C)=C[C@@]5(O[C@H](C[C@@](C)(O)C(=O)O)CC[C@H]5O)O4)O3)CC[C@H]2O[C@@H]1[C@@H](O)C[C@H](C)[C@H]1O[C@@]2(CCCCO2)CC[C@H]1C [okadaic acid]
PKR
  effect on PKR phosphorylation: PKR becomes phosphorylated
reovirus
  susceptibility of treated cells to reovirus infection: become susceptible to reovirus infection
PP2A
  effectiveness against phosphatase: most effective against PP2A
PP1
  effectiveness against phosphatase: less so against PP1
PP2B
  effectiveness against phosphatase: only marginally against PP2B
